According to patent publication US12227520B2 (priority 2019, dated 2025):
Where two headings read alike, the source gives them in different places.

What was measured:
HIV-1 (IIIB) = assay: Antiviral assay in MT-4 cells (HIV MT-4 antiviral assay); assay type: cell-based; conditions: Human immunodeficiency virus 1, IIIB, MT4, 120 h, HIV-1 (IIIB) in MT-4 cells, 5 days incubation; read-out: EC50
Experimental: Compounds were tested in a high-throughput 384-well assay format for their ability to inhibit the replication of HIV-1 (IIIB) in MT-4 cells. Compounds were serially diluted (1:3) in DMSO on 384-well polypropylene plates and further diluted 200-fold into complete RPMI media (10% FBS, 1% P/S) using the Biotek Micro Flow and Labcyte ECHO acoustic dispenser. Each plate contained up to 8 test compounds, with negative (No Drug Control) and 5 μM AZT positive controls. MT-4 cells were pre-infected with 10 μL of either RPMI (mock-infected) or a fresh 1:250 dilution of HIV-1 IIIB concentrated virus stock. Infected and uninfected MT-4 cells were further diluted in complete RPMI media and added to each plate using a Micro Flow dispenser. After 5 days incubation in a humidified and temperature controlled incubator (37° C.), Cell Titer Glo (Promega) was added to the assay plates and chemiluminescence read using an Envision plate-reader.

[1] = Cytotoxicity assay in MT-4 cells; assay type: cell-based, human; conditions: human, uninfected MT-4 cells, 5 days incubation; read-out: CC50
Experimental: Each plate contained up to 8 test compounds, with negative (No Drug Control) and 5 μM AZT positive controls. MT-4 cells were pre-infected with 10 μL of either RPMI (mock-infected) or a fresh 1:250 dilution of HIV-1 IIIB concentrated virus stock. Infected and uninfected MT-4 cells were further diluted in complete RPMI media and added to each plate using a Micro Flow dispenser. After 5 days incubation in a humidified and temperature controlled incubator (37° C.), Cell Titer Glo (Promega) was added to the assay plates and chemiluminescence read using an Envision plate-reader. […] Assays were performed as above except uninfected MT-4 cells were added to each well containing test compound. In addition, 10 μM puromycin was added to the last column of each assay plate to assess a base level of cytotoxicity.

pLai RLuc reporter virus = assay: microbe, parasite or virus in culture; assay type: cell-based, HIV; conditions: Human immunodeficiency virus 1, 72 h
Experimental: To quantify the amount of protein binding to human serum, compounds were serially diluted (1:3) in DMSO and acoustically transferred onto 384-well assay plates via a Labcyte ECHO robot. Each plate contained up to 8 test compounds, including negative and positive controls, (DMSO, 5 μM AZT respectively). Assay plates were prepared in duplicate, and tested in either CCM (cell culture media) or HS/CCM (human serum/cell culture media). MT-4 cells were first pre-infected with pLai RLuc reporter virus for 2 h at 37° C., then further diluted in either CCM (RPMI media, 10% FBS, 1% P/S) or HS/CCM (RPMI media, 10% FBS, 50% HS, 1% P/S), and subsequently added to each plate using a Biotek Micro Flow dispenser. After a 72-h incubation in a humidified and temperature controlled incubator (37° C.), Renilla Glo (Promega) was added to all assay plates and chemiluminescence read using an Envision plate-reader. […] To determine the amount of protein binding, EC50 fold shifts (or EC50 shifts) were calculated by dividing EC50 (HS/CCM)/EC50 (CCM).

| Compound | EC50 (HIV-1 (IIIB)) | CC50 at 5 days [1] | EC50 (pLai RLuc reporter virus; read-out: Antiviral Serum Shift RLuc 50% HS, HS/CCM (RPMI media, 10% FBS, 50% HS, 1% P/S), 72-h incubation) | EC50 (pLai RLuc reporter virus; read-out: Antiviral Serum Shift RLuc CCM, CCM (RPMI media, 10% FBS, 1% P/S), 72-h incubation) |
| --- | --- | --- | --- | --- |
| O=C(NCc1c(F)cc(F)cc1F)c1cn2c(c(O)c1=O)C(=O)N1C[C@@H]2CCc2cc(Cl)ccc21 [Example 48-1, (12S)-2-chloro-7-hydroxy-6,8-dioxo-N-(2,4,6-trifluorobenzyl)-6,8,13,14-tetrahydro-12H-5,12-methanobenzo[e]pyrido[1,2-a][1,4]diazonine-9-carboxamide] | > 34 nM | > 13800 nM |  |  |
| O=C(NCc1ccc(F)cc1F)c1cn2c(c(O)c1=O)C(=O)N1CCCC2CC1 (stereo not drawn) [Example 23, N-(2,4-difluorobenzyl)-11-hydroxy-1,10-dioxo-1,3,4,5,6,10-hexahydro-2,6-ethanopyrido[1,2-a][1,4]diazocine-9-carboxamide] | 59.9 nM | 12000 nM |  |  |
| O=C(NCc1ccc(F)cc1F)c1cn2c(c(O)c1=O)C(=O)N1C[C@H]2CCC(F)(F)C1 [Example 4-1, (7R)—N-(2,4-difluorobenzyl)-4,4-difluoro-12-hydroxy-1,11-dioxo-1,4,5,6,7,11-hexahydro-3H-2,7-methanopyrido[1,2-a][1,4]diazonine-10-carboxamide] | 6.4 nM | 23300 nM |  |  |
| O=C(NCc1c(F)cc(F)cc1F)c1cn2c(c(O)c1=O)C(=O)N1CCCC2CC1 (racemic) [Example 24, 11-hydroxy-1,10-dioxo-N-(2,4,6-trifluorobenzyl)-1,3,4,5,6,10-hexahydro-2,6-ethanopyrido[1,2-a][1,4]diazocine-9-carboxamide] | 27.3 nM | 13800 nM |  |  |
| CN1CCN2CC(C1)n1cc(C(=O)NCc3ccc(F)cc3F)c(=O)c(O)c1C2=O (stereo not drawn) [Example 33, N-(2,4-difluorobenzyl)-12-hydroxy-5-methyl-1,11-dioxo-1,4,5,6,7,11-hexahydro-3H-2,7-methanopyrido[1,2-a][1,4,7]triazonine-10-carboxamide] | 7 nM | > 50000 nM |  |  |
| O=C(NCc1ccc(F)cc1F)c1cn2c(c(O)c1=O)C(=O)N1CCOC[C@@H]2C1 [Example 28, (7S)—N-(2,4-difluorobenzyl)-12-hydroxy-1,11-dioxo-1,3,4,6,7,11-hexahydro-2,7-methanopyrido[1,2-d][1,4,7]oxadiazonine-10-carboxamide] | 13.5 nM | > 50000 nM |  |  |
| O=C(NCc1ccc(F)cc1F)c1cn2c(c(O)c1=O)C(=O)N1C[C@@H]2CCc2cc(Cl)ccc21 [Example 49-1, (12S)-2-chloro-N-(2,4-difluorobenzyl)-7-hydroxy-6,8-dioxo-6,8,13,14-tetrahydro-12H-5,12-methanobenzo[e]pyrido[1,2-a][1,4]diazonine-9-carboxamide] | 36.5 nM | > 15700 nM |  |  |
| O=C(NCc1c(F)cc(F)cc1F)c1cn2c(c(O)c1=O)C(=O)N1C[C@H]2CCc2ccc(F)cc21 [Example 86-1, (12R)-3-fluoro-7-hydroxy-6,8-dioxo-N-(2,4,6-trifluorobenzyl)-6,8,13,14-tetrahydro-12H-5,12-methanobenzo[e]pyrido[1,2-a][1,4]diazonine-9-carboxamide] | 27 nM | > 30300 nM |  |  |
| O=C(NCc1c(F)cc(F)cc1F)c1cn2c(c(O)c1=O)C(=O)N1C[C@@H]2CCc2cccc(F)c21 [Example 46-1, (12S)-4-fluoro-7-hydroxy-6,8-dioxo-N-(2,4,6-trifluorobenzyl)-6,8,13,14-tetrahydro-12H-5,12-methanobenzo[e]pyrido[1,2-a][1,4]diazonine-9-carboxamide] | 90.2 nM | 9240 nM |  |  |
| O=C(NCc1c(F)cc(F)cc1F)c1cn2c(c(O)c1=O)C(=O)N1CC=C(F)C[C@H]2C1 [Example 133, (7S)-5-fluoro-12-hydroxy-1,11-dioxo-N-(2,4,6-trifluorobenzyl)-1,6,7,11-tetrahydro-3H-2,7-methanopyrido[1,2-a][1,4]diazonine-10-carboxamide] |  |  | 1.66 nM | 0.533 nM |

Second part, led by results:

| EC50 (HIV-1 (IIIB)) | Compound | CC50 at 5 days [1] | EC50 (pLai RLuc reporter virus; read-out: Antiviral Serum Shift RLuc 50% HS, HS/CCM (RPMI media, 10% FBS, 50% HS, 1% P/S), 72-h incubation) | EC50 (pLai RLuc reporter virus; read-out: Antiviral Serum Shift RLuc CCM, CCM (RPMI media, 10% FBS, 1% P/S), 72-h incubation) |
| --- | --- | --- | --- | --- |
| 4.43 nM | O=C(NCc1c(F)cc(F)cc1F)c1cn2c(c(O)c1=O)C(=O)N1CCSC[C@H]2C1 [Example 155-2, (7R)-12-hydroxy-1,11-dioxo-N-(2,4,6-trifluorobenzyl)-1,3,4,6,7,11-hexahydro-2,7-methanopyrido[1,2-d][1,4,7]thiadiazonine-10-carboxamide] | > 41300 nM |  |  |
| 56.9 nM | O=C(NCc1ccc(F)cc1F)c1cn2c(c(O)c1=O)C(=O)N1CCc3cc(F)c(F)cc3[C@@H]2C1 (single isomer, unassigned) [Example 111-2] | 9940 nM |  |  |
| 2.79 nM | CC1CCN2C[C@H](C1)n1cc(C(=O)NCc3c(F)cc(F)cc3F)c(=O)c(O)c1C2=O (stereo partly drawn) [Example 124, (7S)-12-hydroxy-5-methyl-1,11-dioxo-N-(2,4,6-trifluorobenzyl)-1,4,5,6,7,11-hexahydro-3H-2,7-methanopyrido[1,2-a][1,4]diazonine-10-carboxamide] | 15400 nM |  |  |
| 9.11 nM | O=C(NCc1ccc(F)c(Cl)c1F)c1cn2c(c(O)c1=O)C(=O)N1Cc3cc(F)c(F)cc3C[C@H]2C1 [Example 139-2, (6S)—N-(3-chloro-2,4-difluorobenzyl)-9,10-difluoro-1-hydroxy-2,14-dioxo-2,7,12,14-tetrahydro-6H-6,13-methanobenzo[f]pyrido[1,2-a][1,4]diazonine-3-carboxamide] | > 50000 nM |  |  |
| 29.8 nM | O=C(NCc1ccc(Cl)cc1Cl)c1cn2c(c(O)c1=O)C(=O)N1CCCC[C@H]2C1 [Example 153, (7S)—N-(2,4-dichlorobenzyl)-12-hydroxy-1,11-dioxo-1,4,5,6,7,11-hexahydro-3H-2,7-methanopyrido[1,2-a][1,4]diazonine-10-carboxamide] | 5610 nM |  |  |
| 2.32 nM | CCC1CCCN2CC1n1cc(C(=O)NCc3ccc(F)cc3F)c(=O)c(O)c1C2=O (stereo not drawn) [Example 106, N-(2,4-difluorobenzyl)-6-ethyl-12-hydroxy-1,11-dioxo-1,4,5,6,7,11-hexahydro-3H-2,7-methanopyrido[1,2-a][1,4]diazonine-10-carboxamide] | 6840 nM |  |  |
| 1.9 nM | CCC1(F)CCCN2CC1n1cc(C(=O)NCc3ccc(F)cc3F)c(=O)c(O)c1C2=O (stereo not drawn) [Example 105, N-(2,4-difluorobenzyl)-6-ethyl-6-fluoro-12-hydroxy-1,11-dioxo-1,4,5,6,7,11-hexahydro-3H-2,7-methanopyrido[1,2-a][1,4]diazonine-10-carboxamide] | 22300 nM |  |  |
| 2.78 nM | C[C@]1(F)CC[C@H]2CN(C1)C(=O)c1c(O)c(=O)c(C(=O)NCc3c(F)cc(F)cc3F)cn12 [Example 132-2, (4S,7S)-4-fluoro-12-hydroxy-4-methyl-1,11-dioxo-N-(2,4,6-trifluorobenzyl)-1,4,5,6,7,11-hexahydro-3H-2,7-methanopyrido[1,2-a][1,4]diazonine-10-carboxamide] | 25700 nM |  |  |
| 2.58 nM | C[C@@]1(F)CCN2C[C@H](C1)n1cc(C(=O)NCc3c(F)cc(F)cc3F)c(=O)c(O)c1C2=O [Example 115-2, (5R,7S)-5-fluoro-12-hydroxy-5-methyl-1,11-dioxo-N-(2,4,6-trifluorobenzyl)-1,4,5,6,7,11-hexahydro-3H-2,7-methanopyrido[1,2-a][1,4]diazonine-10-carboxamide] | 28100 nM |  |  |
| 2.85 nM | O=C(NCc1ccc(F)c(Cl)c1F)c1cn2c(c(O)c1=O)C(=O)N1C[C@@H]2CCCc2ccccc21 [Example 97-1, (6S)—N-(3-chloro-2,4-difluorobenzyl)-1-hydroxy-2,15-dioxo-2,6,7,8,9,15-hexahydro-6,14-methanobenzo[e]pyrido[1,2-a][1,4]diazecine-3-carboxamide] | 6060 nM |  |  |
| 7.37 nM | O=C(NCc1ccc(F)cc1F)c1cn2c(c(O)c1=O)C(=O)N1Cc3ccc(Cl)cc3C[C@@H]2C1 (single isomer, unassigned) [Example 128-2] | > 50000 nM |  |  |
